Assay results reported in PMC8916034, “Abubidentin A, New Oleanane-type Triterpene Ester from Abutilon bidentatum and its antioxidant, cholinesterase and antimicrobial activities” (PeerJ, 2022).
Converted amounts (≈) assume the structure as drawn. “And” between values parts separate entries of the source, which are not always exact repeats. Equal values may be shown once. Read-outs that look alike come from different tables or passages of the source.

Legend:
[1] = DPPH radical scavenging activity; conditions: for AA (mg/gm) Avg (DPPH activity) / AA (mg/gm) (DPPH activity), single trial: Conc 20 µg/mL; for AA (mg/gm) Avg (DPPH activity): average of trials A-C; for AA (mg/gm) (DPPH activity), single trial: single trials A, B, C; for DPPH IC50: mean ± SD, triplicate, 30 min, 517 nm
Description: The ability of the samples to scavenge DPPH radical was determined by [Wang, Chen & Hou (2019)] method with slight modification ([Wang, Chen & Hou, 2019]). […] Samples were incubated at ambient temperature under dark conditions for 30 min and the absorbance wavelength was measured at 517 nm against a blank sample. DPPH^• solution and ascorbic acid were used as blank samples and positive control, respectively.
where Ab and As are the absorbance values of the blank and test samples, respectively.

[2] = ABTS radical cation decolorization assay; conditions: for AA (mg/gm) Avg (ABTS+ activity) / AA (mg/gm) (ABTS+ activity), single trial: Conc. 20 µg/mL; for AA (mg/gm) Avg (ABTS+ activity): average of trials A-C; for AA (mg/gm) (ABTS+ activity), single trial: single trials A, B, C; for ABTS^+ IC50: mean ± SD, triplicate, 30 min, 734 nm
Description: ABTS radical cation decolorization assay was performed to measure the total antioxidant activity of the samples by obeying the previously described method ([Re et al., 1999]). In brief, ABTS^•+ radicals were generated by treating 7 mM ABTS^+ aqueous solution with 2.4 mM potassium persulfate for 12-16 h at room temperature in the dark. Prior to use, this solution was diluted with ethanol (approx. 1:89 v/v) and equilibrated to […] absorbance at 734 nm to obtain the working solution. Afterward, a 1.0 mL of working solution was reacted with 20 µL (1 mg mL^−1) samples and incubated for 30 min. After incubation, samples were scanned at 734 nm absorbance wavelength and the percentage of inhibition was determined. Ascorbic acid (AA) was applied reference standard.

[3] = test system: Escherichia coli (ATCC 25922); assay: MIC, broth microdilution with resazurin; assay type: cell-based; conditions: 24 h at 37 °C; for MIC: Escherichia coli, ATCC25922, 24 h
Description: (§1) The acetylcholinesterase (AChE) and butyrylcholinesterase (BChE) were obtained from the mouse brain and human blood at the Pharmacology Department of King Saud University, SaudiArabia. Escherichia coli (ATCC 25922), Pseudomonas aeruginosa (ATCC 27853), and Staphylococcus aureus were provided by Microbiology Department, King Khaled University Hospital (KKUH), Saudi Arabia.
(§2) Minimum inhibitory concentration (MIC) assay was performed to evaluate the in vitro antimicrobial activities using a broth microdilution method ([Nascente, 2009]). Three bacterial strains Escherichia coli (ATCC 25922), Pseudomonas aeruginosa (ATCC 27853), and Staphylococcus aureus were applied to examine the antimicrobial activity of samples. Briefly, the microbial strains were transferred to Muller Hinton agar (MHB, HiMedia, India) and 24-h colonies were individually suspended in 10 mL Muller Hinton broth (MHB, HiMedia, India). The suspension of each microbial strain was standardized at 575 nm wavelength using a spectrophotometer (CRAIC Technologies, CA, USA), to match the McFarland scale (1.5 × 10^8 CFU mL^−1). The standardized suspension was further diluted to obtain a final concentration of 5 × 10^5 CFU mL^−1. The samples prepared in DMSO at 1 mgmL^−1 and different concentrations (30–500 µgmL^−1) were attained after dilution in Mueller Hinton broth. Three inoculated wells containing different concentrations of DMSO (4% to 1% range), one non-inoculated well without an antimicrobial agent and negative controls were included. The inoculated well was used to monitor whether the broth was sufficient for the microbial strain to grow. Chloramphenicol ([…]) was applied as a positive control. The sample treated 96-well microplates were sealed and incubated for 24 h at 37 °C After a 1-day incubation, […] of 0.02% resazurin solution was added into each well to examine the viability of the microbial strain ([Palomino et al., 2002]). The minimum used concentration of test sample that inhibited the microorganism growth (MIC value) was calculated as the minimum concentration of the test samples required to prevent the color change of the resazurin solution. All the assays were performed in triplicates.

[4] = test system: Pseudomonas aeruginosa (ATCC 27853); assay: MIC, broth microdilution with resazurin; assay type: cell-based; conditions: 24 h at 37 °C; for MIC: Pseudomonas aeruginosa, ATCC27853, 24 h
Description: as §1, §2

[5] = test system: Staphylococcus aureus; assay: MIC, broth microdilution with resazurin; assay type: cell-based; conditions: 24 h at 37 °C; for MIC: Staphylococcus aureus, 24 h
Description: as §1, §2

[6] = biological target: T1, acetylcholinesterase (AChE) (Mus musculus, UniProt P21836); assay: biochemical; conditions: for Donep (mg/gm) Avg (AChE inhibitory activity) / Abs (AChE inhibitory activity) / Donep (mg/gm) (AChE inhibitory activity), single trial: Conc 10 µg/mL; for Donep (mg/gm) Avg (AChE inhibitory activity): average of trials A-C; for Abs (AChE inhibitory activity) / Donep (mg/gm) (AChE inhibitory activity), single trial: single trials A, B, C
T1 construct: Crude enzymes, AChE (acetylcholinesterase) and BChE (butyrylcholinesterase) were collected from brain of mice and blood of humans, respectively; from tissue; host or cells: mouse brain
Description: (§3) The acetylcholinesterase (AChE) and butyrylcholinesterase (BChE) were obtained from the mouse brain and human blood at the Pharmacology Department of King Saud University, SaudiArabia.
(§4) The AChE and BChE assays were tested by using two chemical substrates acetylthiocholine iodide and S-butyrylthiochoilne iodide, respectively. […] Afterwards, […] (1 mM, 62 µL), sodium phosphate buffer (50 mM, 25 µL, pH 8) provided with bovine albumin serum (0.1%) and […] (0.5 mm, 13 µL) were added separately into each reaction mixture. […] All the experiments were performed in triplicates to avoid error and the results were estimated through the two-tailed Student’s t-test at a p < 0.05 significance. The inhibition percentage of cholinesterase activity was calculated using the following equation I%=AC−As/AC×100
(§5) where Ac and As is the absorbance of control and sample or reference compound. IC50 values could be determined from the dose response curve obtained by plotting the percent inhibition values against test concentrations of each compound.

[7] = biological target: T2, butyrylcholinesterase (BChE) (Homo sapiens, UniProt P06276); assay: biochemical; conditions: for Gal (mg/gm) Avg (BChE inhibitory activity) / Abs (BChE inhibitory activity) / Gal (mg/gm) (BChE inhibitory activity), single trial: Conc 10 µg/mL; for Gal (mg/gm) Avg (BChE inhibitory activity): average of trials A-C; for Abs (BChE inhibitory activity) / Gal (mg/gm) (BChE inhibitory activity), single trial: single trials A, B, C;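 as to Abs (BChE inhibitory activity): absorbance read at 405 nm against blank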
T2 construct: Crude enzymes, AChE (acetylcholinesterase) and BChE (butyrylcholinesterase) were collected from brain of mice and blood of humans, respectively; from tissue; host or cells: human blood
Description: as §3, §4, §5

[8] = E. coli, read-out: Minimum inhibitory concentration
[9] = P. aeruginosa, read-out: Minimum inhibitory concentration
[10] = S. aureus, read-out: Minimum inhibitory concentration
[11] = crude enzyme from mouse brain, mean ± SD, triplicate, read-out: AChE IC50 (converted)
[12] = crude enzyme from human blood, mean ± SD, triplicate, read-out: BChE IC50 (converted)

T1 sequence (P21836 32-614): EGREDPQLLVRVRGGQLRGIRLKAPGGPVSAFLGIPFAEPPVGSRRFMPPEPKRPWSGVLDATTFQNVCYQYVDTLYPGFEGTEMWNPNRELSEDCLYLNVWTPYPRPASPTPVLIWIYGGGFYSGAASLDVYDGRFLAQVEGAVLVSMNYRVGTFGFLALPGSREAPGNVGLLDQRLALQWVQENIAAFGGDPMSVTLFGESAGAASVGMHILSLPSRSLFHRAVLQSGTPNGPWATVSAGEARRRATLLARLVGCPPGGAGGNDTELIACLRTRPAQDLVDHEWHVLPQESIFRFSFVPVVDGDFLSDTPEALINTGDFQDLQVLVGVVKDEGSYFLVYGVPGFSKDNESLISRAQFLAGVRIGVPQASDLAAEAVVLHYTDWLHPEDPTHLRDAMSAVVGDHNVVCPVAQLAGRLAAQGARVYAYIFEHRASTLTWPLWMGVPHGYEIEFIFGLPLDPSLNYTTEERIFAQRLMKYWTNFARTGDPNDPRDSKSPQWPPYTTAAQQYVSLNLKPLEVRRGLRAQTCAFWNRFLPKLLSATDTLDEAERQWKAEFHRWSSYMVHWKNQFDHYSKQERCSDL
T2 sequence (P06276 29-602): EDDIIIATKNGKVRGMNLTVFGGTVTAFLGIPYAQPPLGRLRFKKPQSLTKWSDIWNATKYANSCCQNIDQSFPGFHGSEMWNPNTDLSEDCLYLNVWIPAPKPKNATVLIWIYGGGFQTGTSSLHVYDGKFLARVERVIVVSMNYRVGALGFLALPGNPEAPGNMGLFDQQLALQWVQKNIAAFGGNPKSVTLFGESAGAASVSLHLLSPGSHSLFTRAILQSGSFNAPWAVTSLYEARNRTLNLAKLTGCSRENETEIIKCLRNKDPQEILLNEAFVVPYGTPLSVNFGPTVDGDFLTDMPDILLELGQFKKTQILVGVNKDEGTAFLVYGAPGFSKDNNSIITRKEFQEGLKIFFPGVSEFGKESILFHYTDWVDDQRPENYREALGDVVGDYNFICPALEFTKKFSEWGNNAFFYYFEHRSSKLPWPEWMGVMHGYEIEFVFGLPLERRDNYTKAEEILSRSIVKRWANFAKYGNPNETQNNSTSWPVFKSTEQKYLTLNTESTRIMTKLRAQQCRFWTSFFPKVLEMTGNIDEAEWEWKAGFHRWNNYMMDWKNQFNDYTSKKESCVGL

Compound	AA (mg/gm) Avg (DPPH activity) [1] [mg/gm]	AA (mg/gm) (DPPH activity), single trial [1]	DPPH IC50 [1]	AA (mg/gm) Avg (ABTS+ activity) [2] [mg/gm]	AA (mg/gm) (ABTS+ activity), single trial [2]	ABTS^+ IC50 [2]	MIC [3, 8] [µg/mL]	MIC [4, 9] [µg/mL]	MIC [5, 10] [µg/mL]	Donep (mg/gm) Avg (AChE inhibitory activity) [6] [mg/gm]	Abs (AChE inhibitory activity) [6]	Donep (mg/gm) (AChE inhibitory activity), single trial [6]	IC50 [6, 11] [µM]	Gal (mg/gm) Avg (BChE inhibitory activity) [7] [mg/gm]	Abs (BChE inhibitory activity) [7]	Gal (mg/gm) (BChE inhibitory activity), single trial [7]	IC50 [7, 12] [µM]	Minimum inhibitory concentration ([3]; E. coli) [µg/mL]	Minimum inhibitory concentration ([4]; P. aeruginosa) [µg/mL]	Minimum inhibitory concentration ([5]; S. aureus) [µg/mL]	further results
O=C1O[C@H]([C@@H](O)CO)C(O)=C1O [Ascorbic acid, ascorbic acid, reference compound]	3.12	3.30 mg/gm and 2.84 mg/gm and 3.22 mg/gm	3.12 ± 0.24^a µgmL^−1	4.45	4.52 mg/gm and 4.25 mg/gm and 4.58 mg/gm	4.45 ± 0.17^a µgmL^−1															
O=C(N[C@H](CO)[C@H](O)c1ccc([N+](=O)[O-])cc1)C(Cl)Cl [Chloramphenicol, reference compound]							≤ 40	≤ 40	≤ 40												
CCCCCCCCCCCCCCCCCCCCC(O)C(=O)O (stereo not drawn) [Compound 1, 2-hydroxydocosanoic acid]	10.82	10.98 mg/gm and 10.54 mg/gm and 10.96 mg/gm	10.82 ± 0.24^d µgmL^−1	11.45	11.64 mg/gm and 11.02 mg/gm and 11.70 mg/gm	11.45 ± 0.37^d µgmL^−1	≤ 500	≤ 1000	≤ 1000	121.97	0.342 and 0.328 and 0.345	122.89 mg/gm and 120.10 mg/gm and 122.92 mg/gm	342	137.76	0.375 and 0.379 and 0.354	138.12 mg/gm and 136.98 mg/gm and 138.18 mg/gm	386				
CC[C@@H](/C=C/[C@@H](C)C1CCC2C3CCC4C[C@@H](O)CC[C@]4(C)C3CC[C@@]21C)C(C)C (stereo partly drawn) [Compound 2, stigmasta-22-ene-3-β-ol]	7.60	7.84 mg/gm and 7.12 mg/gm and 7.86 mg/gm	7.60 ± 0.42^c µgmL^−1	8.18	8.25 mg/gm and 8.02 mg/gm and 8.28 mg/gm	8.18 ± 0.13^c µgmL^−1				68.65	0.312 and 0.315 and 0.317	68.94 mg/gm and 68.01 mg/gm and 69.02 mg/gm		49.52	0.355 and 0.365 and 0.358	49.70 mg/gm and 49.12 mg/gm and 49.74 mg/gm		≤125	≤250	≤150	IC50 [6]: 166 µM; IC50 [7]: 119 µM; MIC ([3]; read-out: Minimum inhibitory concentration, E. coli): ≤ 125 µg/mL; MIC ([4]; read-out: Minimum inhibitory concentration, P. aeruginosa): ≤ 250 µg/mL; MIC ([5]; read-out: Minimum inhibitory concentration, S. aureus): ≤ 150 µg/mL
CCCCCCCCCCCCCCCCCCCCCCCCCCCCCCCC(=O)O[C@H]1C[C@H](O)[C@]2(C)C3=CC=C4[C@@H]5CC(CO)(C(=O)O)CC[C@]5(C)CC[C@@]4(C)[C@]3(C)CCC2C1(C)C (stereo partly drawn) [Compound 3, 1α,3β,30-Trihydroxy-29-carboxy-olean-9(11), 12-diene-3-dotriacontanoate]	4.67	4.89 mg/gm and 4.35 mg/gm and 4.78 mg/gm	4.67 ± 0.28^b µgmL^−1	6.42	6.56 mg/gm and 6.13 mg/gm and 6.58 mg/gm	6.42 ± 0.25^b µgmL^−1	125 to 150 (≈ 132 to 158 µM)	125 to 150 (≈ 132 to 158 µM)	125 to 150 (≈ 132 to 158 µM)	38.13	0.289 and 0.294 and 0.315	38.16 mg/gm and 38.05 mg/gm and 38.20 mg/gm	40.2	32.68	0.285 and 0.286 and 0.287	32.88 mg/gm and 32.25 mg/gm and 32.92 mg/gm	34.4	≤150	≤125	≤125	Minimum inhibitory concentration ([3]; E. coli, listed as compound 3): ≤ 150 µg/mL; Minimum inhibitory concentration ([4]; P. aeruginosa, listed as compound 3): ≤ 125 µg/mL; Minimum inhibitory concentration ([5]; S. aureus, listed as compound 3): ≤ 125 µg/mL
COc1ccc2c3c1O[C@H]1C[C@@H](O)C=C[C@@]31CCN(C)C2 [Galantamine, reference compound]														10.27	0.345 and 0.348 and 0.352	10.78 mg/gm and 9.29 mg/gm and 10.80 mg/gm					
